Experiments:
[1] = Mean urinary recoveries for DHEA base in the comparison study; assay type: in vivo; conditions: human volunteers
[2] = Comparison of enhanced bioavailability DHEA adsorbate with micronised DHEA: plasma levels (AUC) of DHEA base and sulphate; assay type: in vivo; conditions: reference AUC arbitrarily denoted as 100%, 500 mg oral every 8 hours over 24 hours, 9 healthy male human volunteers, read-out: F = absolute bioavailability (DHEA Base)
Description: In this study an enhanced bioavailability DHEA adsorbate powder of the type prepared in Example 2 was compared with standard micronised DHEA in capsule form. For the formulation in accordance with the invention (hereinafter referred to as 'test') the dose administered was 500 mg of DHEA as adsorbate in powder-sachet form. The standard micronised DHEA (hereinafter referred to as 'reference') was administered as 2 x 250 mg capsules. […] In the study, the test substance was compared in a group of 9 healthy male human volunteers against the reference substance. The dosage regime was 500 mg every 8 hours over a 24 hour period. Plasma samples were taken in each case at intervals up to and including 24 hours post initial dosing and the samples were assayed for DHEA (base and sulphate) levels. DHEA sulphate levels were measured because a substantial portion of the DHEA is converted to the sulphate form in vivo. For the reference substance, the area under the curve (AUC) value are arbitrarily denoted as 100%. The AUC value was then compared and assigned an absolute bioavailability value (%) using the 100% as baseline.

## C[C@]12CC[C@H](O)CC1=CC[C@@H]1[C@@H]2CC[C@]2(C)C(=O)CC[C@@H]12 [REFERENCE, dehydroepiandrosterone]
[1]; Day 0
  Mean Urinary Recoveries for DHEA Base: 22.55 ± 8.50 mg/24 h.
[1]; Day 1
  Mean Urinary Recoveries for DHEA Base: 460.67 ± 179.87 mg/24 h.
[1]; Day 2
  Mean Urinary Recoveries for DHEA Base: 799.55 ± 191.90 mg/24 h.
[1]; Day 3
  Mean Urinary Recoveries for DHEA Base: 745.88 ± 179.92 mg/24 h.
[1]; Day 4
  Mean Urinary Recoveries for DHEA Base: 694.33 ± 162.07 mg/24 h.
[1]; Day 5
  Mean Urinary Recoveries for DHEA Base: 800.22 ± 156.19 mg/24 h.
[2]
  bioavailability: 100%

Reference: patent EP0429187A1, “Enhanced bioavailability adsorbates” (ELAN C[…].L.C., priority 1989, dated 1991)
